# Values quoted from earlier work, collected in PMC1657008, “Rotavirus NSP4_114-135 peptide has no direct, specific effect on chloride transport in rabbit brush-border membrane” (Virology Journal, 2006).
# Tested on: neonatal mouse intestinal mucosal sheets
# Settings: added to neonatal mouse intestinal mucosal sheets; ref [1]
# Source text: However, the cellular and molecular bases by which rotavirus and NSP4 induce a moderate net chloride secretion remain unclear.
smiles,measurement,value
C[N+](C)(C)CCOC(N)=O [carbachol],Cl- secretory currents,"transient, small and almost identical increases in Cl^- secretory currents"
